Reference: PubChem BioAssay (NCI)
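Briefly, cells in 96-well plates were exposed to five compound concentrations for 48 h, and endpoints were estimated by linear interpolation. At the GI50, growth is halved. TGI: total growth inhibition.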

Assays:
Assay in all cases: DTP human tumour cell line panel, 48 h
HOP-92 NSCLC = test system: HOP-92 NSCLC
EKVX NSCLC = test system: EKVX NSCLC
NCI-H23 lung = test system: NCI-H23 lung
K-562 leukemia = test system: K-562 leukemia
NCI-H460 lung = test system: NCI-H460 lung
HCT-116 colon = test system: HCT-116 colon
OVCAR-5 ovarian = test system: OVCAR-5 ovarian
KM12 colon = test system: KM12 colon
OVCAR-8 ovarian = test system: OVCAR-8 ovarian
M14 melanoma = test system: M14 melanoma

Structure (SMILES)	TGI (HOP-92 NSCLC) [µM]	GI50 (EKVX NSCLC) [µM]	TGI (EKVX NSCLC) [µM]	GI50 (NCI-H23 lung) [µM]	TGI (NCI-H23 lung) [µM]	GI50 (K-562 leukemia) [µM]	TGI (K-562 leukemia) [µM]	GI50 (NCI-H460 lung) [µM]	TGI (NCI-H460 lung) [µM]	GI50 (HCT-116 colon) [µM]	TGI (HCT-116 colon) [µM]	GI50 (OVCAR-5 ovarian) [µM]	TGI (OVCAR-5 ovarian) [µM]	GI50 (KM12 colon) [µM]	TGI (KM12 colon) [µM]	GI50 (OVCAR-8 ovarian) [µM]	TGI (OVCAR-8 ovarian) [µM]	GI50 (M14 melanoma) [µM]	TGI (M14 melanoma) [µM]	GI50 (HOP-92 NSCLC) [µM]
COc1ccccc1NS(=O)(=O)c1ccc2oc(SC(C)C)nc2c1	13	6.4	78.7	8.66	> 100	3.73	> 100	15.7	> 100	8.35	> 100	48.9	> 100	18.5	49	25.6	> 100	36.1	> 100	–
CCOc1ccc(O)cc1[P+](c1ccccc1)(c1ccccc1)c1ccccc1	–	–	24.2	–	5.55	–	9.48	–	14.5	–	13.7	–	13.1	–	11.7	–	15.7	–	16.7	–
O=C(OC/C=C1C=C(OC(=O)c2ccccc2)/C(=N/N(C(=O)c2ccccc2)c2ccccc2)O\1)c1ccccc1	–	–	–	–	–	–	11.8	–	20	–	18.3	15.9	29.5	–	22.8	–	23.6	–	18.7	–
NCCCCCCNCc1cccc2ccccc12	–	–	> 100	–	> 100	–	51.1	–	> 100	–	> 100	–	> 100	–	> 100	–	> 100	–	34.3	–
Cc1cc(Nc2cc(N3CCN(C)CC3)nc(Sc3ccc(NC(=O)C4CC4)cc3)n2)n[nH]1	5.77	> 10	> 10	3.19	> 10	0.232	> 10	0.537	> 10	0.273	> 10	–	–	0.0461	> 10	7.54	> 10	1.48	> 10	0.989
COc1cc2c(cc1C1=NC(C)(C)CO1)OCO2	> 100	–	> 100	–	> 100	–	> 100	–	> 100	–	> 100	–	–	–	> 100	–	> 100	–	> 100	–
CCOC(=O)/C(=C/c1ccc(N(CCC#N)CCC#N)cc1C)NC(=O)/C=C/c1ccccc1	–	–	> 100	–	> 100	–	> 100	–	> 100	–	> 100	–	> 100	–	> 100	–	> 100	–	> 100	–
CC1=C[C@H]2C[C@H](C)[C@H]3CC[C@H](C)[C@]4(C1)C(=O)C(O)=C(C)C(=O)[C@@]324	–	42.9	> 100	11	29.7	20	39.5	42.9	> 100	19.5	41.8	20.4	55.4	29.4	> 100	40.4	> 100	29.7	> 100	–
CNS(=O)(=O)OCC1OC(n2cnc3c(N)ncnc32)C(O)C1O (stereo not drawn)	> 100	> 100	> 100	> 100	> 100	–	–	> 100	> 100	> 100	> 100	> 100	> 100	> 100	> 100	> 100	> 100	> 100	> 100	> 100
COc1cc(-n2ccnc2)cc(OC)c1OC	> 100	84.4	> 100	> 100	> 100	68.1	> 100	41.6	> 100	31.9	> 100	> 100	> 100	43.2	> 100	56.8	> 100	–	–	72.6
COc1cccc(/C(C)=N/NC(=O)CSc2nc3ccccc3c(=O)n2CCc2ccc(S(N)(=O)=O)cc2)c1	11.9	5.81	33.9	2.86	8.47	11.2	> 100	–	–	–	–	3.36	21	2.8	7.67	2.32	4.88	2.58	73	1.95
COC(=O)/C=c1\s/c(=C\C(=O)OC)c2ccccc12	> 100	–	> 100	–	> 100	–	> 100	–	–	–	> 100	–	> 100	–	> 100	–	> 100	–	> 100	–
COc1ccc(Nc2nc3cc(N)cc(N)c3nc2-c2ccccc2)cc1OC	–	25.6	71.1	26.3	80.1	20.2	71.2	20.5	> 100	14.9	29.7	29.7	72.7	14.8	32	33.6	> 100	21	69.8	–
O=C(C[P+](c1ccccc1)(c1ccccc1)c1ccccc1)C[P+](c1ccccc1)(c1ccccc1)c1ccccc1	0.294	–	–	0.253	0.888	0.306	7.49	0.546	2.3	0.203	0.547	0.263	0.832	1.13	2.63	0.318	2.31	0.387	1.46	0.0696
CCCCCCCC(=O)OCC(=O)[C@]1(O)Cc2c(O)c3c(c(O)c2[C@@H](OC2CC(N)C(O)C(C)O2)C1)C(=O)c1c(OC)cccc1C3=O (stereo partly drawn)	–	0.236	1.58	0.0552	0.526	–	–	–	0.196	0.0742	1.09	0.422	1.24	0.188	0.758	–	–	0.0866	0.634	–
CCCCCCCCCCCCCC(=O)CSCCNC(=O)CCNC(=O)[C@@H](O)C(C)(C)COP(=O)(O)OP(=O)(O)OCC1OC(n2cnc3c(N)ncnc32)C(O)C1OP(=O)(O)O (stereo partly drawn)	24.5	–	41.3	–	42	–	–	–	79.7	–	30.1	–	83.1	–	39	–	83.5	–	32	–
